ChEMBL document CHEMBL3745644, “The synthesis and BK channel-opening activity of N-acylaminoalkyloxime derivatives of dehydroabietic acid” (Bioorg Med Chem Lett, 2016)

Biological target: Calcium-activated potassium channel subunit alpha-1 (Homo sapiens) (UniProt Q12791)
Experiment: Induction of step pulse-induced human BKalpha channel opening activity expressed in CHO-K1 cells at 30 uM by population patch clamp method relative to control
Assay type: cell-based

Sequence of Calcium-activated potassium channel subunit alpha-1 (Homo sapiens) (Q12791 whole entry): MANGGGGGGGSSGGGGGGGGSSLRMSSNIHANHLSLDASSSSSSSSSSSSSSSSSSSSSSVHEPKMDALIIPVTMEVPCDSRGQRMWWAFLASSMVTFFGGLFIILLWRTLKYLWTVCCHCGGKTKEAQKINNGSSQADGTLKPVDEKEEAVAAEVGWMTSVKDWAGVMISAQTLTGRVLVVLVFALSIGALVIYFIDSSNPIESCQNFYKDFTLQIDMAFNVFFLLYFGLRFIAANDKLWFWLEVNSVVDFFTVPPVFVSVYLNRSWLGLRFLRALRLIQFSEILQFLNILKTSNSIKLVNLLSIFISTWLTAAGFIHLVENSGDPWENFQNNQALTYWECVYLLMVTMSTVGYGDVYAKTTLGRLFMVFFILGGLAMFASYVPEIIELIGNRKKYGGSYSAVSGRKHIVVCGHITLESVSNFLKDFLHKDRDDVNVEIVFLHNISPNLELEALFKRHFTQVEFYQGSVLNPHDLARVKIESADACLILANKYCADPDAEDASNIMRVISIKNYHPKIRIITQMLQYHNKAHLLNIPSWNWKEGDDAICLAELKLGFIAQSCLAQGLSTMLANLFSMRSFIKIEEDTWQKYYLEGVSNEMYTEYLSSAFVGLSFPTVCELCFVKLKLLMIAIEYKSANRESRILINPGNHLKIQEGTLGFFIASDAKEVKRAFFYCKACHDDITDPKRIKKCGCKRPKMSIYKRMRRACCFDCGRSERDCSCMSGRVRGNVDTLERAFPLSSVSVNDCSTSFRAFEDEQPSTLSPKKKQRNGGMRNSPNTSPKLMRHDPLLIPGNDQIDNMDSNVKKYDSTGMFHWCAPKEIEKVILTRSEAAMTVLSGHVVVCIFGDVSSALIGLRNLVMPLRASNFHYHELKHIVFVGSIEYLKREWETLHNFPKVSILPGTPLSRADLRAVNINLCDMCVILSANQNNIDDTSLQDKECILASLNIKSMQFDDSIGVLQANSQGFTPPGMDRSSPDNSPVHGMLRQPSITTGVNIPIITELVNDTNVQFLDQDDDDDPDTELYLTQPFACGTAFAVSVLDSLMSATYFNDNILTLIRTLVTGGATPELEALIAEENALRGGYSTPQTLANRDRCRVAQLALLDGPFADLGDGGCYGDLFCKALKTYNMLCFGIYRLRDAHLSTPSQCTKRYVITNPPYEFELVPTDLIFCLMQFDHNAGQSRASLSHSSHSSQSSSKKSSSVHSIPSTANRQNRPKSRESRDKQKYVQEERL

SMILES | Activity [%]
CC(C)c1cc2c(cc1Br)[C@@]1(C)CCC[C@@](C)(C(=O)O)[C@@H]1C/C2=N\OCCNC(=O)c1cc2ccccc2[nH]1 | 89
CC(C)C(=O)NCCO/N=C1\C[C@H]2[C@](C)(C(=O)O)CCC[C@]2(C)c2cc(Br)c(C(C)C)cc21 | 142
CC(=O)NCCO/N=C1\C[C@H]2[C@](C)(C(=O)O)CCC[C@]2(C)c2cc(Br)c(C(C)C)cc21 | 140
COc1ccc(C(=O)NCCO/N=C2\C[C@H]3[C@](C)(C(=O)O)CCC[C@]3(C)c3cc(Br)c(C(C)C)cc32)cc1 | 102
CC(C)c1cc2c(cc1Br)[C@@]1(C)CCC[C@@](C)(C(=O)O)[C@@H]1C/C2=N\OCCNC(=O)c1ccc(C(F)(F)F)cc1 | 107
CC(C)c1cc2c(cc1Br)[C@@]1(C)CCC[C@@](C)(C(=O)O)[C@@H]1C/C2=N\OCCN | 98.6
CC(C)c1cc2c(cc1Br)[C@@]1(C)CCC[C@@](C)(C(=O)O)[C@@H]1C/C2=N\OCCNC(=O)c1c(F)c(F)c(F)c(F)c1F | 136
CC(C)c1cc2c(cc1Br)[C@@]1(C)CCC[C@@](C)(C(=O)O)[C@@H]1C/C2=N\OCCNC(=O)C1CC1 | 149
CCc1ccc(C(=O)NCCO/N=C2\C[C@H]3[C@](C)(C(=O)O)CCC[C@]3(C)c3cc(Br)c(C(C)C)cc32)cc1 | 68
COc1ccccc1C(=O)NCCO/N=C1\C[C@H]2[C@](C)(C(=O)O)CCC[C@]2(C)c2cc(Br)c(C(C)C)cc21 | 101
CC(C)c1cc2c(cc1Br)[C@@]1(C)CCC[C@@](C)(C(=O)O)[C@@H]1C/C2=N\OCCNC(=O)c1ccccc1C(F)(F)F | 123
CC(C)c1cc2c(cc1Br)[C@@]1(C)CCC[C@@](C)(C(=O)O)[C@@H]1C/C2=N\OCCNC(=O)c1cccc(C(F)(F)F)c1 | 113
CC(C)c1cc2c(cc1Br)[C@@]1(C)CCC[C@@](C)(C(=O)O)[C@@H]1C/C2=N\OCCNC(=O)c1ccc(Cl)s1 | 103
O=c1[nH]c2cc(C(F)(F)F)ccc2n1-c1cc(C(F)(F)F)ccc1O | 268
CC(C)c1cc2c(cc1Br)[C@@]1(C)CCC[C@@](C)(C(=O)O)[C@@H]1C/C2=N\OCCNC(=O)c1cc2ccccc2s1 | 85.7
CC(C)c1cc2c(cc1Br)[C@@]1(C)CCC[C@@](C)(C(=O)O)[C@@H]1C/C2=N\OCCNC(=O)c1ccc(Br)s1 | 107
COc1cccc(C(=O)NCCO/N=C2\C[C@H]3[C@](C)(C(=O)O)CCC[C@]3(C)c3cc(Br)c(C(C)C)cc32)c1 | 90.4

Results, then the compound that gave them:

Activity [%] | SMILES
151 | CC(C)c1cc2c(cc1Br)[C@@]1(C)CCC[C@@](C)(C(=O)O)[C@@H]1C/C2=N\OCCNC(=O)c1ccco1
121 | CC(C)c1cc2c(cc1Br)[C@@]1(C)CCC[C@@](C)(C(=O)O)[C@@H]1C/C2=N\OCCNC(=O)c1ccccc1
124 | CC(C)c1cc2c(cc1Br)[C@@]1(C)CCC[C@@](C)(C(=O)O)[C@@H]1C/C2=N\OCCNC(=O)c1ccc[nH]1
106 | CC(C)c1ccc2c(c1)/C(=N/OCCNC(=O)c1cccs1)C[C@H]1[C@](C)(C(=O)O)CCC[C@]21C
267 | CC(C)c1cc2c(cc1Br)[C@@]1(C)CCC[C@@](C)(C(=O)O)[C@@H]1C/C2=N\OCCNC(=O)c1cccs1
118 | CC(C)c1cc2c(cc1Br)[C@@]1(C)CCC[C@@](C)(C(=O)O)[C@@H]1C/C2=N\OCCNC(=O)c1ccccc1F
108 | CC(C)c1cc2c(cc1Br)[C@@]1(C)CCC[C@@](C)(C(=O)O)[C@@H]1C/C2=N\OCCNC(=O)c1ccccn1
104 | CC(C)c1cc2c(cc1Br)[C@@]1(C)CCC[C@@](C)(C(=O)O)[C@@H]1C/C2=N\OCCCCCNC(=O)c1cccs1
128 | CC(C)c1cc2c(cc1Br)[C@@]1(C)CCC[C@@](C)(C(=O)O)[C@@H]1C/C2=N\OCCNC(=O)c1ccsc1
97.2 | CC(C)c1cc2c(cc1Br)[C@@]1(C)CCC[C@@](C)(C(=O)O)[C@@H]1C/C2=N\OCCCCCCNC(=O)c1cccs1
146 | CCCCCC(=O)NCCO/N=C1\C[C@H]2[C@](C)(C(=O)O)CCC[C@]2(C)c2cc(Br)c(C(C)C)cc21
101 | Cc1ccc(C(=O)NCCO/N=C2\C[C@H]3[C@](C)(C(=O)O)CCC[C@]3(C)c3cc(Br)c(C(C)C)cc32)s1
204 | CC(C)c1cc2c(cc1Br)[C@@]1(C)CCC[C@@](C)(C(=O)O)[C@@H]1C/C2=N\OCCNC(=O)c1nccs1
136 | CC(C)c1cc2c(cc1Br)[C@@]1(C)CCC[C@@](C)(C(=O)O)[C@@H]1C/C2=N\OCCCNC(=O)c1cccs1
106 | CC(C)c1cc2c(cc1Br)[C@@]1(C)CCC[C@@](C)(C(=O)O)[C@@H]1C/C2=N\OCCNC(=O)c1cc(Br)cs1
